The source of these data is US20140135327A1, “N- (2 -AMINOPHENYL) BENZAMIDE DERIVATIVES AS HISTONE DEACETYLASE INHIBITORS” (CANCER RESEARCH TECHNOLOGY LIMITED, priority 2011, published 2014).

What all share (type): biochemical
The target in one assay is T1, HDAC 7-CAT (Homo sapiens, UniProt Q8WUI4).
T1 construct: For HDAC-4 and 7 only catalytic domains were expressed (HDAC-4 CAT and HDAC-7 CAT); 6xHis; made in house; host or cells: Sf9 cells (baculovirus)
T1 sequence (Q8WUI4 512-865 limits assumed): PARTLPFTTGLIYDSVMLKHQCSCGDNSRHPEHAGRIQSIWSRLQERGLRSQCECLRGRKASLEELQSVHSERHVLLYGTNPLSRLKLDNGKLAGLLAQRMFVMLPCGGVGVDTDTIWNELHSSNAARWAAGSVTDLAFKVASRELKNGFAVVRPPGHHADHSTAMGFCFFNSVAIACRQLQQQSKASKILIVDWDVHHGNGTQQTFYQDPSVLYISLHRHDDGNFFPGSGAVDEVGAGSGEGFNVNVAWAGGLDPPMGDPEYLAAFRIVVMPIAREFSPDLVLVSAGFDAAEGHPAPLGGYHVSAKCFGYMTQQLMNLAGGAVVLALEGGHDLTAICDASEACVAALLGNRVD
As to the kind of experiment: Fluorescence-based HDAC isoform assay with electrophoretic separation, HDAC 7-CAT. The settings on record: catalytic domain only, 1 μM FAM-labeled acetylated peptide, 17 h at 25° C. As for the experimental part: The inhibitory effects of the compounds of Examples 7 and 9 above on HDAC activity were determined using a fluorescence-based assay with electrophoretic separation of substrate and product carried out using a microfluidic system followed by quantitation of fluorescence intensity in the substrate and product peaks.
The assays were performed using isolated HDAC isoforms that had been expressed as 6×His-tagged fusion proteins in a baculovirus expression system in Sf9 cells. HDACs 1, 2, 3, 6, and 8 were expressed as full length fusion proteins. For HDAC-4 and 7 only catalytic domains were expressed (HDAC-4 CAT and HDAC-7 CAT). The HDAC10 fusion protein was expressed as a carboxy-terminal deletion of 38 amino acids (residues 632-669). HDAC3 was coexpressed with a fragment of the SMRT gene (residues 395-489) to generate enzymatically active protein. Purified proteins were incubated with 1 μM carboxyfluorescein (FAM)-labeled acetylated peptide substrate and test compound for 17 h at 25° C. in HDAC assay buffer containing 100 mM HEPES (pH 7.5), 25 mM KCl, 0.1% BSA, and 0.01% Triton X-100. […] Substrate and product were separated electrophoretically using a Caliper LabChip 3000 system with blue laser excitation and green fluorescence detection (CCD2). The fluorescence intensity in the substrate and product peaks was determined using the Well Analyzer software on the Caliper system. […]

A further assay deals with HDAC 3 (Homo sapiens, UniProt O15379). As to the kind of experiment: Caliper HDAC inhibitor profiling assay (microfluidic mobility-shift), HDAC 3. The settings on record: 1 hour at room temperature, read-out: IC50 (μM) HDAC3. As for the experimental part:
(§1) The activity of the compounds of the invention against HDAC 3 (Class I) and HDAC 6 (Class II) can be determined using the Caliper Life Sciences HDAC inhibitor profiling assay, which utilises microfluidic mobility-shift detection.
(§2) Reaction buffer: 25 mM Tris/Cl, pH 8.0, 137 mM NaCl, 2.7 mM KCl, 1 mM MgCl2, 0.1 mg/ml BSA (fatty acid free).
(§3) Stop Buffer: 100 mM HEPES, pH 7.5, 10 mM EDTA, 0.04% Brij-35, 0.25% CR-3, and 2.5 μM Trichostatin A.
(§4) Stopped reactions were assembled in microtiter plate wells by adding 1 μL of the inhibitor compound in DMSO, 15 μL 2× Enzyme, and 15 μL 2× peptide. The reactions were incubated for 1 hour at room temperature, stopped with the addition of 45 μL Stop Solution, and read on the LabChip EZ Reader®. The curves were fit with sigmoidal dose response algorithm using GraphPad Prism.

A further assay concerns the target T2, HDAC 6 (Homo sapiens, UniProt Q9UBN7).
T2 sequence (Q9UBN7 1-1215): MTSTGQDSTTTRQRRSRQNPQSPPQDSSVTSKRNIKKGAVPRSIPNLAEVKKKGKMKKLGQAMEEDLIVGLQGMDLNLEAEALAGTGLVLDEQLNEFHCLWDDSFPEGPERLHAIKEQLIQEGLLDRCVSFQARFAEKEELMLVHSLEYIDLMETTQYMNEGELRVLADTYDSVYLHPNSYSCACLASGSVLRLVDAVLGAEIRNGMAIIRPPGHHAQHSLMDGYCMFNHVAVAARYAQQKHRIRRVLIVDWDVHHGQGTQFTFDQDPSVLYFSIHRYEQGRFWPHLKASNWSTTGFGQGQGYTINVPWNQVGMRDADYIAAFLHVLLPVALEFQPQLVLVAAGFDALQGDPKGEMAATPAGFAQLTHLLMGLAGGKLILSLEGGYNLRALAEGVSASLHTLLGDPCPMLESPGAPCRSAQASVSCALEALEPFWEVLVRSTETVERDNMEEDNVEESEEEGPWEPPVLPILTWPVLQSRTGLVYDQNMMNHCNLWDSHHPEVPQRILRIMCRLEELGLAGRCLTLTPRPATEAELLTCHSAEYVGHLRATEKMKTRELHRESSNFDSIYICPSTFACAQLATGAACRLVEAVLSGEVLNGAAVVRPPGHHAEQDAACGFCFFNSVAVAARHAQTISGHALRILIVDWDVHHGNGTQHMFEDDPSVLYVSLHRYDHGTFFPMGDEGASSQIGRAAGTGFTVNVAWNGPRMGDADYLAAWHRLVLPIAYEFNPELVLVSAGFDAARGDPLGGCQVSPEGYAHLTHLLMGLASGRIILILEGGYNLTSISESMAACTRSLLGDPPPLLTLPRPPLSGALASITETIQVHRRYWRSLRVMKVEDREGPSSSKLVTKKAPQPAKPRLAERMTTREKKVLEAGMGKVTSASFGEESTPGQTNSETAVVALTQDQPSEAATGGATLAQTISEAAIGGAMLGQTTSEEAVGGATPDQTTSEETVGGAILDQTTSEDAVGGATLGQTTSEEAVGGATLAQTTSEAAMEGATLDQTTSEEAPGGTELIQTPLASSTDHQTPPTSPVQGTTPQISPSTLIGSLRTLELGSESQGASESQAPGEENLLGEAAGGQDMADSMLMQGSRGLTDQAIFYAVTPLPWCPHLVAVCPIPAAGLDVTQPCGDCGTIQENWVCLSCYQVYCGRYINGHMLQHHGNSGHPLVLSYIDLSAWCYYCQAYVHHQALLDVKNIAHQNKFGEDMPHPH
Description: Caliper HDAC inhibitor profiling assay (microfluidic mobility-shift), HDAC 6. Particulars: 1 hour at room temperature, read-out: IC50 (μM) HDAC6. How it is done: as §1, §2, §3, §4

HDAC 3, sequence (O15379 whole entry, species assumed): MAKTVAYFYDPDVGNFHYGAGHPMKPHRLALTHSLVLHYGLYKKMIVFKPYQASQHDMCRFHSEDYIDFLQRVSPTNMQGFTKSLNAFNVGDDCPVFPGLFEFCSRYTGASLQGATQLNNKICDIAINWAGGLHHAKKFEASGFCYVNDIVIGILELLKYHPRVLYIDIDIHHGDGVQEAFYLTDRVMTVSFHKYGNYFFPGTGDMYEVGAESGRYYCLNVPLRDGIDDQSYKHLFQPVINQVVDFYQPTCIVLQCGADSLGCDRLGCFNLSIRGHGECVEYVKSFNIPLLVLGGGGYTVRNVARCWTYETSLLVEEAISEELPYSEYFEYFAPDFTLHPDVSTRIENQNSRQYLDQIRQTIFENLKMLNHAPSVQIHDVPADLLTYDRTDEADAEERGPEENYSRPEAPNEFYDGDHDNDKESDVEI
HDAC 3, sequence (Q9Y618 395-489 partner limits assumed, species assumed): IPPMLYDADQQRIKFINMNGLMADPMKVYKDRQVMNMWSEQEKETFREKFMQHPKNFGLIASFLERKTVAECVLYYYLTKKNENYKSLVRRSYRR

For `C=C1CN(Cc2ccc(C(=O)Nc3ccccc3N)cc2)C(=O)c2ccccc21` [Example 7, N-(2-Aminophenyl)-4-[(4-methylene-1-oxo-3,4-dihydroisoquino-2(1H)-yl)methyl]benzamide], the half-maximal inhibitory concentration (IC50) – broadly, the concentration that inhibits the measured activity by half – on HDAC 7-CAT was 7.53 µM; at HDAC 3, 0.22 µM; on HDAC 6, over 10 µM.
The matching figures for `C=C1CN(Cc2ccc(C(=O)Nc3ccccc3N)cc2)C(CC(=O)O)c2ccccc21` (stereo not drawn) [Example 9, [2-(4-{[(2-Aminophenyl)amino]carbonyl}benzyl)-4-methylene-1,2,3,4-tetra hydroisoquinolin-1-yl]acetic acid]: over 30 µM, 0.78 µM and over 10 µM.
